From patent US9688710B2, “Inhibitors of sodium glucose cotransporter 1” (LEXICON PHARMACEUTICALS, INC., priority 2012, dated 2017)

Experiments:
[1] = molecular target: Human sodium/glucose co-transporter type 1 (SGLT1) (Homo sapiens (Human), UniProt P13866); assay: In vitro human SGLT1 inhibition assay (14C-AMG uptake); type: cell-based; settings: HEK293 cells expressing human HA-SGLT1, 14C-AMG uptake
Description: Human sodium/glucose co-transporter type 1 (SGLT1; accession number NP_000334; GI: 4507031) was cloned into pIRESpuro2 vector for mammalian expression (construct: HA-SGLT1-pIRESpuro2).
HEK293 cells were transfected with the human HA-SGLT1-pIRESpuro2 vector and the bulk stable cell line was selected in presence of 0.5 μg/mL of puromycin. Human HA-SGLT1 cells were maintained in DMEM media containing 10% FBS, 1% GPS and 0.5 μg/mL of puromycin.
The HEK293 cells expressing the human HA-SGLT1 were seeded in 384 well plates (30,000 cells/well) in DMEM media containing 10% FBS, 1% GPS and 0.5 μg/mL of puromycin, then incubated overnight at 37 C, 5% CO2. Cells were then washed with uptake buffer (140 mM NaCl, 2 mM KCl, 1 mM CaCl2, 1 mM MgCl2, 10 mM HEPES, 5 mM Tris, 1 mg/mL bovine serum albumin (BSA), pH 7.3). Twenty microliters of uptake buffer with or without testing compounds were added to the cells. Then, 20 microliters of uptake buffer containing ^14C-AMG (100 nCi) were also added to cells. The cell plates were incubated at 37° C., 5% CO2 for 1-2 hours. After washing the cells with uptake buffer, scintillation fluid was added (40 microliters/well) and ^14C-AMG uptake was measured by counting radioactivity using a scintillation coulter (TopCoulter NXT; Packard Instruments).

[2] = molecular target: Human sodium/glucose co-transporter type 2 (SGLT2) (Homo sapiens (Human), UniProt P31639); assay: In vitro human SGLT2 inhibition assay (14C-AMG uptake); type: cell-based; settings: HEK293 cells expressing human HA-SGLT2, 14C-AMG uptake
Description: Human sodium/glucose co-transporter type 2 (SGLT2; accession number P31639; GI:400337) was cloned into pIRESpuro2 vector for mammalian expression (construct: HA-SGLT2-pIRESpuro2).
HEK293 cells were transfected with the human HA-SGLT2-pIRESpuro2 vector and the bulk stable cell line was selected in presence of 0.5 μg/mL of puromycin. Human HA-SGLT2 cells were maintained in DMEM media containing 10% FBS, 1% GPS and 0.5 μg/mL of puromycin.
The HEK293 cells expressing the human HA-SGLT2 were seeded in 384 well plates (30,000 cells/well) in DMEM media containing 10% FBS, 1% GPS and 0.5 μg/mL of puromycin, then incubated overnight at 37 C, 5% CO2. Cells were then washed with uptake buffer (140 mM NaCl, 2 mM KCl, 1 mM CaCl2, 1 mM MgCl2, 10 mM HEPES, 5 mM Tris, 1 mg/mL bovine serum albumin (BSA), pH 7.3). Twenty microliters of uptake buffer with or without testing compounds were added to the cells. Then, 20 microliters of uptake buffer containing ^14C-AMG (100 nCi) were added to the cells. The cell plates were incubated at 37° C., 5% CO2 for 1-2 hours. After washing the cells with uptake buffer, scintillation fluid was added (40 microliters/well) and ^14C-AMG uptake was measured by counting radioactivity using a scintillation coulter (TopCoulter NXT; Packard Instruments).

Human sodium/glucose co-transporter type 1 (SGLT1), sequence (P13866 whole entry): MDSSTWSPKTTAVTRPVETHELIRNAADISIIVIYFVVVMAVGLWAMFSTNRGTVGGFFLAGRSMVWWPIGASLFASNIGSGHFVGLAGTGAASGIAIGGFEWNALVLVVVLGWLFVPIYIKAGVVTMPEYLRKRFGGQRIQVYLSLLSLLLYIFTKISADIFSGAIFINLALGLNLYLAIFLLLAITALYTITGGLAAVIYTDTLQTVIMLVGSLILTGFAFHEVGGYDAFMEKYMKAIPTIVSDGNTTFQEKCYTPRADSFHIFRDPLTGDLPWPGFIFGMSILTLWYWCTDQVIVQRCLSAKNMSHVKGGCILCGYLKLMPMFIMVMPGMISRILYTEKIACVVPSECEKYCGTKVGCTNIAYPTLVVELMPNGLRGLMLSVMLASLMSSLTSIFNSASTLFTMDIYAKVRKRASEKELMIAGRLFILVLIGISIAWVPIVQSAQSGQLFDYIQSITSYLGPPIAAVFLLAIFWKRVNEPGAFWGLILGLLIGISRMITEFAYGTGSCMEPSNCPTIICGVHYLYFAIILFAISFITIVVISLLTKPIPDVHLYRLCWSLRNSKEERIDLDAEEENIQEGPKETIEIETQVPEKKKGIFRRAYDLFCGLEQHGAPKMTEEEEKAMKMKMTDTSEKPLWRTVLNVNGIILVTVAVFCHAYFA
Human sodium/glucose co-transporter type 2 (SGLT2), sequence (P31639 whole entry): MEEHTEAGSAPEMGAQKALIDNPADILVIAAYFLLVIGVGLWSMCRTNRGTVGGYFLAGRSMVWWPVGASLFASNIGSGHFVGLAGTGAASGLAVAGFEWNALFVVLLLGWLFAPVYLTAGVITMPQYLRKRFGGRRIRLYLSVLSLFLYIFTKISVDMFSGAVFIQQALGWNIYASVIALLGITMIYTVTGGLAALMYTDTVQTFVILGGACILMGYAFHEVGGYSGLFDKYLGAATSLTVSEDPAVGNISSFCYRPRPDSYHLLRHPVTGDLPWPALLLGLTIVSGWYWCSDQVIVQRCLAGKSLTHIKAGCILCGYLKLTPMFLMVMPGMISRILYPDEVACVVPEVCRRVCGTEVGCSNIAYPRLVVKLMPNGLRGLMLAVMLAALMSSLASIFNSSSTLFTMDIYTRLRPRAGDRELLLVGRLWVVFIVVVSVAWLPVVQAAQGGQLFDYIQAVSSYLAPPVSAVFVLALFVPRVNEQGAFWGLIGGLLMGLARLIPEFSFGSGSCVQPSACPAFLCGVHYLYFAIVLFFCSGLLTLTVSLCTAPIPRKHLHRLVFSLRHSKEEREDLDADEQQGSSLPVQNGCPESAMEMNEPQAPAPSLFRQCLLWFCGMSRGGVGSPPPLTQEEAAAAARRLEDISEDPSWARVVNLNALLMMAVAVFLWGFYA

SMILES	IC50 [1]	IC50 [2]
CS[C@H]1O[C@@H](c2ccc(C)c(Cc3ccc(OCCCC(=O)NC(C)(C)C(=O)N4CCN(C)CC4)cc3)c2)[C@H](O)[C@@H](O)[C@@H]1O [N-(2-methyl-1-(4-methylpiperazin-1-yl)-1-oxopropan-2-yl)-4-(4-(2-methyl-5-((2S,3R,4R,5S,6R)-3,4,5-trihydroxy-6-(methylthio)tetrahydro-2H-pyran-2-yl)benzyl)phenoxy)butanamide]	< 10 nM	< 10 nM
CS[C@H]1O[C@@H](c2ccc(C)c(Cc3ccc(CCCCC(=O)NC(C)(C)C(N)=O)cc3)c2)[C@H](O)[C@@H](O)[C@@H]1O [N-(1-amino-2-methyl-1-oxopropan-2-yl)-5-(4-(2-methyl-5-((2S,3R,4R,5S,6R)-3,4,5-trihydroxy-6-(methylthio)tetrahydro-2H-pyran-2-yl)benzyl)phenyl)pentanamide]	< 10 nM	< 10 nM
CSC1OC(c2ccc(C)c(Cc3ccc(CCCC(=O)N4CCN(CCCN5CCN(C(=O)CCCc6ccc(Cc7cc(C8OC(SC)C(O)C(O)C8O)ccc7C)cc6)CC5)CC4)cc3)c2)C(O)C(O)C1O [(S,R,S,R,R)-1,1′-(4,4′-(propane-1,3-diyl)bis(piperazine-4,1-diyl))bis(4-(4-(2-methyl-5-((2S,3R,4R,5S,6R)-3,4,5-trihydroxy-6-(methylthio)tetrahydro-2H-pyran-2-yl)benzyl)phenyl)butan-1-one)]	< 10 nM	< 10 nM
CS[C@H]1O[C@@H](c2ccc(C)c(Cc3ccc(OCCNCC(C)(C)C(N)=O)cc3)c2)[C@H](O)[C@@H](O)[C@@H]1O [2,2-dimethyl-3-((2-(4-(2-methyl-5-((2S,3R,4R,5S,6R)-3,4,5-trihydroxy-6-(methylthio)tetrahydro-2H-pyran-2-yl)benzyl)phenoxy)ethyl)amino)propanamide]	< 10 nM	< 10 nM
CS[C@H]1O[C@@H](c2ccc(Cl)c(Cc3ccc(OCCNC4CCNCC4)cc3)c2)[C@H](O)[C@@H](O)[C@@H]1O [(2S,3R,4R,5S,6R)-2-(4-chloro-3-(4-(2-(piperidin-4-ylamino)ethoxy)benzyl)phenyl)-6-(methylthio)tetrahydro-2H-pyran-3,4,5-triol]	< 100 nM	< 10 nM

Continued, values first:

IC50 [1]	IC50 [2]	SMILES
< 100 nM	< 10 nM	CS[C@H]1O[C@@H](c2ccc(Cl)c(Cc3ccc(OCCCC(=O)N(C)C(C)(C)CO)cc3)c2)[C@H](O)[C@@H](O)[C@@H]1O [4-(4-(2-chloro-5-((2S,3R,4R,5S,6R)-3,4,5-trihydroxy-6-(methylthio)tetrahydro-2H-pyran-2-yl)benzyl)phenoxy)-N-(1-hydroxy-2-methylpropan-2-yl)-N-methylbutanamide]
< 100 nM	< 10 nM	CCNC(=O)CCCOc1ccc(Cc2cc([C@@H]3O[C@H](SC)[C@@H](O)[C@H](O)[C@H]3O)ccc2Cl)cc1 [4-(4-(2-chloro-5-((2S,3R,4R,5S,6R)-3,4,5-trihydroxy-6-(methylthio)tetrahydro-2H-pyran-2-yl)benzyl)phenoxy)-N-ethylbutanamide]
< 100 nM	< 10 nM	CS[C@H]1O[C@@H](c2ccc(Cl)c(Cc3ccc(OCCCC(=O)N[C@@H](CO)C(N)=O)cc3)c2)[C@H](O)[C@@H](O)[C@@H]1O [N-((S)-1-amino-3-hydroxy-1-oxopropan-2-yl)-4-(4-(2-chloro-5-((2S,3R,4R,5S,6R)-3,4,5-trihydroxy-6-(methylthio)tetrahydro-2H-pyran-2-yl)benzyl)phenoxy)butanamide]
< 10 nM	< 10 nM	CS[C@H]1O[C@@H](c2ccc(Cl)c(Cc3ccc(OCCCNC(=N)N)cc3)c2)[C@H](O)[C@@H](O)[C@@H]1O [1-(3-(4-(2-chloro-5-((2S,3R,4R,5S,6R)-3,4,5-trihydroxy-6-(methylthio)tetrahydro-2H-pyran-2-yl)benzyl)phenoxy)propyl)guanidine]
